Ki data for one compound are collected here from ChEMBL document CHEMBL1126890, “A tight binding inhibitor of 5-aminoimidazole ribonucleotide carboxylase” (J Med Chem, 1993).

Holding throughout (design): species or system Aves
Experiment [1] is described as follows: Inhibition of Avian AIR carboxylase in presence of 0.5 nM of the compound.
The nature of experiment [2]: Kobs versus inhibitory concentration.
Experiment [3] is described as follows: Changes in free energy concentration.

Turning to `Nc1c([N+](=O)[O-])ncn1[C@@H]1O[C@H](COP(=O)(O)O)[C@@H](O)[C@H]1O`, the values for the Ki in experiment [1], in experiment [2] and in experiment [3] were 1.3 nM, 1.4 nM and 1.6 nM, respectively.
